Target: SARS-CoV-2 spike S1 RBD / ACE2 interaction (S-RBD protein binding to ACE2) (Severe acute respiratory syndrome coronavirus 2, UniProt P0DTC2)
Assay: biochemical

N=C(N)c1ccc(/N=N/Nc2ccc(C(=N)N)cc2)cc1 [DIZE]
IC50: 20.6 µM

Reference: publication PMC9476334 (Chemico-Biological Interactions, 2022)
